Measured values reported in ChEMBL document CHEMBL5260833, “An overview of quinazolines: Pharmacological significance and recent developments” (Eur J Med Chem, 2018).

Experiments:
[1] = Antiviral activity against Gomphrena mosaic virus relative to control; format: functional, Gomphrena mosiac virus; set-up: concentration or dose not given beside the values
Mus musculus [2] = test: Sedative activity in mouse assessed as sleeping time at 300 mg/kg, ip; format: functional
[3] = test system: Human immunodeficiency virus 1; test: Antiviral activity against HIV-1 infected in human MT4 cells assessed as protection against virus-induced cytotoxicity relative to control; format: functional; set-up: concentration or dose not given beside the values
[4] = test system: Human immunodeficiency virus 2; test: Antiviral activity against HIV-2 infected in human MT4 cells assessed as protection against virus-induced cytotoxicity relative to control; format: functional; set-up: concentration or dose not given beside the values
Mus musculus [5] = test: Anticonvulsant activity in ip dosed mouse assessed as reduction in clonus phase; format: functional
[6] = Inhibition of HCV RNA IRES IIa by FRET assay; set-up: species or system Hepacivirus hominis
Rattus norvegicus [7] = test: Antiinflammatory activity in rat at assessed as reduction in paw edema at 200 mg/kg relative to control; format: functional
[8] = molecular target: Histamine H2 receptor (Homo sapiens) (UniProt P25021); test: Inhibition of histamine h2 (unknown origin)
Mus musculus [9] = species: Mus musculus; test: Sedative hypnotic activity in mouse; format: functional; set-up: concentration or dose not given beside the values
Canis familiaris = test: Antiplatelet activity in iv dosed dog assessed as platelet aggregation; format: functional, organism-based; details: Canis lupus familiaris
Homo sapiens [10] = species: Homo sapiens; test: Immunosuppressive activity in human T cell; format: functional, organism-based
Homo sapiens [11] = species: Homo sapiens; test: Immunosuppressive activity in human B cell; format: functional, organism-based
CCRF-CEM = test: Anticancer activity against human CCRF-CEM cell assessed as cell growth inhibition measured after 120 hrs; format: functional, cell-based
WIL2 = test: Anticancer activity against human WIL2 cell assessed as cell growth inhibition measured after 120 hrs; format: functional, cell-based; details: WIL2, 120 h
Oryctolagus cuniculus = test: Antihypertensive activity in po dosed rabbit assessed as decrease in 30mmhg of systolic blood pressure measured after 4 to 6 hrs; format: functional; details: time 4-6 hrs
Mus musculus [12] = test: Sedative activity in mouse assessed as sleeping time at 100 mg/kg, ip; format: functional
Mus musculus [13] = test: Sedative activity in mouse assessed as sleeping time at 30 mg/kg, ip; format: functional
Mus musculus [14] = test: Anticonvulsant activity in ip dosed mouse assessed as reduction in tonus phase; format: functional
HeLa = test: Anticancer activity against human HeLa cells assessed as cell growth inhibition incubated for 24 hrs by MTT assay; format: functional, cell-based
MDA-MB-231 = test: Anticancer activity against human MDA-MB-231 cells assessed as cell growth inhibition incubated for 24 hrs by MTT assay; format: functional, cell-based; details: MDA-MB-231, 24 h
[15] = Therapeutic index, ratio of IC50 for antiviral activity against HIV infected in human H9 cells to EC50 for antiviral activity against HIV infected in human H9 cells; format: toxicity, cell-based; details: human immunodeficiency virus, H9 cells infected with HIV; read-out: Ratio IC50/EC50
[16] = test system: Human immunodeficiency virus; test: Antiviral activity against HIV infected in human H9 cells; format: functional, organism-based; details: Human immunodeficiency virus 1, H9
Mus musculus [17] = test: Analgesic activity in phenylbenzoquinone induced mouse assessed as reduction in writhing at 10 mg/kg, po measured after 1 hrs by writhing test relative to control; format: functional
Mus musculus [18] = test: Analgesic activity in acetic acid peritonitis induced mouse assessed as reduction in writhing at 10 mg/kg, po measured after 1 hrs by writhing test relative to control; format: functional
Rattus norvegicus [19] = test: Antiinflammatory activity in carrageenan induced rat at assessed as reduction in paw edema 50 mg/kg, ip measured after […] relative to control; format: functional; set-up: scale not given: the % may be the effect or the level left

Histamine H2 receptor (Homo sapiens), sequence (P25021 whole entry): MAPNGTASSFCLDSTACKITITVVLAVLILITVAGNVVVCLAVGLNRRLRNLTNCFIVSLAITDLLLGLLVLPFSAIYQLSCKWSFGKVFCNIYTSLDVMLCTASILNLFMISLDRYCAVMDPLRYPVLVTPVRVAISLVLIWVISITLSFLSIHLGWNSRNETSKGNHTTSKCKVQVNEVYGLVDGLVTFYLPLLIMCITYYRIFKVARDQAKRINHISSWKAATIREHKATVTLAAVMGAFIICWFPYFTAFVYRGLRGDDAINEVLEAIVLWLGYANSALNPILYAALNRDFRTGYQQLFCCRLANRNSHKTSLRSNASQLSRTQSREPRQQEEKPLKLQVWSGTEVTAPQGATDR

CC(/N=N/n1cnc2ccccc2c1=O)=N\Nc1ccc(C)cc1
Activity [1]: 15%

O=c1c2ccccc2nc(-c2ccncc2)n1CCCN1CCOCC1
Time (Mus musculus [2]): 7.1 min

CC(/N=N/n1cnc2ccccc2c1=O)=N\Nc1ccccc1
Activity [1]: 15%

O=c1c2ccccc2nc(S)n1NCNc1ccccc1
Activity [3]: 25% | Activity [4]: 27%

Oc1nc(-c2ccc(Cl)cc2)nc2cc3c(cc12)OCO3
ED50 (Mus musculus [5]): 32.7 µmol/kg

NC1=NCc2ccccc2C(=O)N1
EC50 [6]: 650000 nM

O=C(O)c1ccc(Cl)cc1-n1c(/C=C/c2ccc(F)cc2)nc2ccccc2c1=O
inhibition in vivo at 200 mg/kg (Rattus norvegicus [7]): 62.2%

O=c1c2ccccc2nc(S)n1NCn1cnc2ccccc21
Activity [3]: 25% | Activity [4]: 27%

CNC(=C[N+](=O)[O-])NCCSCc1ccc(CN(C)C)o1
ED50 [8]: 12.3 mg/kg | pKb [8]: 7.06

CN(C)CCC(c1ccc(Cl)cc1)c1ccccn1 (centres undefined) [CHLORPHENIRAMINE]
Activity (Mus musculus [9]): 25%

CC1(C)NC(N)=Nc2ccccc21
EC50 [6]: 420000 nM

CCCCS(=O)(=O)NC(CCCc1ccc2c(c1)c(=O)n(CCC1CCNCC1)c(=O)n2Cc1ccncc1)C(=O)O (centres undefined)
IC50 (Canis familiaris): 210 nM

Nc1nc(N)c2c(CCCc3ccc(C(=O)N[C@@H](C[C@@H](F)C(=O)O)C(=O)O)cc3)c[nH]c2n1
IC50 (Homo sapiens [10]): 1410 nM | IC50 (Homo sapiens [11]): 2930 nM

CCc1nnc2n(-c3cccc(C)c3)c(=O)c3ccccc3n12
Activity (Mus musculus [9]): 4%

COc1ccc(N/N=C(C)/N=N/n2cnc3ccccc3c2=O)cc1
Activity [1]: 15%

C#CCN(Cc1ccc2nc(C)[nH]c(=O)c2c1)c1ccc(C(=O)N[C@@H](C[C@@H](F)C(=O)O)C(=O)O)cc1
IC50 (Homo sapiens [10]): 5.67 nM | IC50 (Homo sapiens [11]): 8.08 nM

O=c1[nH]c(NCCCOc2cccc(CN3CCCCC3)c2)nc2ccccc12
pKb [8]: 7.39

CCCCS(=O)(=O)NC(CCCc1ccc2[nH]c(=O)n(CCC3CCNCC3)c(=O)c2c1)C(=O)O (centres undefined)
IC50 (Canis familiaris): 210 nM

O=c1c2ccccc2nc(-c2cccnc2)n1-c1ccccc1F
Time (Mus musculus [2]): 395.5 min

O=C(O)c1cc(Br)ccc1-n1c(/C=C/c2ccc(O)cc2)nc2ccccc2c1=O
inhibition in vivo at 200 mg/kg (Rattus norvegicus [7]): 62.2%

Nc1nc(O)c2c(Cl)c(CNc3ccc(C(=O)NC(CCC(=O)O)C(=O)O)cc3)ccc2n1 (centres undefined)
IC50 (CCRF-CEM): 1800 nM | IC50 (WIL2): 1800 nM

C#CCN(Cc1ccc2nc(C)[nH]c(=O)c2c1)c1ccc(C(=O)N[C@@H](C[C@H](F)C(=O)O)C(=O)O)cc1
IC50 (Homo sapiens [10]): 5.67 nM | IC50 (Homo sapiens [11]): 8.08 nM

Cc1cccc(-n2c(=O)c3ccccc3n3c(C)nnc23)c1
Activity (Mus musculus [9]): 4%

CCOC(=O)c1c(C)cc2nc(COC(=O)NC(C)C)n(-c3ccccc3Cl)c(=O)c2c1C
ED30 (Oryctolagus cuniculus): 0.42 mg/kg

O=c1c2ccccc2nc(-c2ccncc2)n1-c1ccccc1F
Time (Mus musculus [2]): 699.7 min | Time (Mus musculus [12]): 111.2 min | Time (Mus musculus [13]): 3.5 min

Nc1ccc(-c2nc(O)c3cc4c(cc3n2)OCO4)cc1
ED50 (Mus musculus [14]): 21.6 µmol/kg | ED50 (Mus musculus [5]): 36.5 µmol/kg

COC(=O)CCC(NC(=O)c1ccc(NCc2ccc3nc(N)[nH]c(=O)c3c2Cl)s1)C(=O)OC (centres undefined)
IC50 (CCRF-CEM): 2100 nM | IC50 (WIL2): 1800 nM

O=C(O)c1cc(Br)ccc1-n1c(/C=C/c2ccc([N+](=O)[O-])cc2)nc2ccccc2c1=O
inhibition in vivo at 200 mg/kg (Rattus norvegicus [7]): 62.2%

COc1cccc2c(=O)n(Cc3ccccc3)c(SCCCN3C(=O)c4ccccc4C3=O)nc12
IC50 (HeLa): 1850 nM | IC50 (MDA-MB-231): 1850 nM

Cc1ccc2nc(SCCCN3C(=O)c4ccccc4C3=O)n(Cc3ccccc3)c(=O)c2c1
IC50 (HeLa): 1850 nM | IC50 (MDA-MB-231): 1850 nM

COc1cc2nc(-c3ccc4ccccc4c3)nc(O)c2cc1OC
selectivity ratio [15]: 13.2 | EC50 [16]: 7590 nM | IC50 [16]: 100000 nM

CCCCS(=O)(=O)NC(CCCc1ccc2c(c1)c(=O)n(CCC1CCNCC1)c(=O)n2C)C(=O)O (centres undefined)
IC50 (Canis familiaris): 210 nM

O=C(O)c1ccc(Cl)c(-n2c(/C=C/c3ccc(F)cc3)nc3ccccc3c2=O)c1
inhibition in vivo at 200 mg/kg (Rattus norvegicus [7]): 62.2%

CC(/N=N/n1cnc2ccccc2c1=O)=N\Nc1ccccc1Cl
Activity [1]: 15%

O=c1c2ccccc2nc(S)n1NCNc1ccccn1
Activity [3]: 25% | Activity [4]: 27%

O=C(O)c1ccc(Cl)cc1-n1c(/C=C/c2ccc([N+](=O)[O-])cc2)nc2ccccc2c1=O
inhibition in vivo at 200 mg/kg (Rattus norvegicus [7]): 62.2%

CCCc1nnc2n(-c3cccc(C)c3)c(=O)c3ccccc3n12
Activity (Mus musculus [9]): 4%

CC(/N=N/n1cnc2ccccc2c1=O)=N\Nc1ccc(Cl)cc1
Activity [1]: 15%

CCCCS(=O)(=O)NC(CNC(=O)c1ccc2[nH]c(=O)n(CCC3CCNCC3)c(=O)c2c1)C(=O)O (centres undefined)
IC50 (Canis familiaris): 210 nM

COc1cccc2c(=O)n(Cc3ccccc3)c(SCCN3CCOCC3)nc12
IC50 (HeLa): 1850 nM | IC50 (MDA-MB-231): 1850 nM

COC(=O)CCC(NC(=O)c1ccc(N(C)Cc2ccc3nc(C)[nH]c(=O)c3c2)s1)C(=O)OC (centres undefined)
IC50 (CCRF-CEM): 2100 nM | IC50 (WIL2): 1800 nM

Oc1nc(-c2ccc(Br)cc2)nc2cc3c(cc12)OCO3
ED50 (Mus musculus [14]): 27.8 µmol/kg | ED50 (Mus musculus [5]): 32.7 µmol/kg

Cc1nc2ccccc2c(=O)n1NCN(C)C
Activity [3]: 21% | Activity [4]: 25%

CCNC(=O)OCc1nc2cc(C)c(C(=O)OCC)c(C)c2c(=O)n1-c1ccccc1Cl
ED30 (Oryctolagus cuniculus): 0.35 mg/kg

CC(=O)Oc1ccccc1C(=O)O [ASPIRIN]
inhibition in vivo at 10 mg/kg (Mus musculus [17]): 20% | inhibition in vivo at 10 mg/kg (Mus musculus [18]): 60%

Nc1nc2c(c(=O)[nH]1)C[C@@H](CCc1ccc(C(=O)N[C@@H](C[C@H](F)C(=O)O)C(=O)O)cc1)CN2
IC50 (Homo sapiens [10]): 2300 nM | IC50 (Homo sapiens [11]): 2930 nM

Nc1nc(N)c2c(CCCc3ccc(C(=O)N[C@@H](C[C@H](F)C(=O)O)C(=O)O)cc3)c[nH]c2n1
IC50 (Homo sapiens [10]): 1410 nM | IC50 (Homo sapiens [11]): 2930 nM

CCCCS(=O)(=O)NC(CCCc1ccc2c(c1)c(=O)n(CCC1CCNCC1)c(=O)n2Cc1ccccc1)C(=O)O (centres undefined)
IC50 (Canis familiaris): 210 nM

Clc1cccc(Cl)c1NC1=NCCN1 [CLONIDINE]
ED30 (Oryctolagus cuniculus): 0.065 mg/kg

COc1cc2nc(-c3ccccc3F)nc(O)c2cc1OC
selectivity ratio [15]: 9.17 | EC50 [16]: 10900 nM | IC50 [16]: 100000 nM

COC(=O)CCC(NC(=O)c1ccc(NCc2ccc3nc(C)[nH]c(=O)c3c2Cl)s1)C(=O)OC (centres undefined)
IC50 (CCRF-CEM): 2100 nM | IC50 (WIL2): 1800 nM

CCOC(=O)c1c(C)cc2nc(COC(=O)NC)n(-c3ccccc3Cl)c(=O)c2c1C
ED30 (Oryctolagus cuniculus): 2.8 mg/kg

O=c1c2c(Br)cc(Br)cc2nc(-c2ccccc2)n1-c1nc2ccccc2s1
Activity (Rattus norvegicus [19]): 21.3%

Cc1nc2ccccc2c(=O)n1NCN1CCOCC1
Activity [3]: 21% | Activity [4]: 25%

Oc1nc(-c2ccc(F)cc2)nc2cc3c(cc12)OCO3
ED50 (Mus musculus [14]): 17.7 µmol/kg

Cc1cccc(-n2c(=O)c3ccccc3n3cnnc23)c1
Activity (Mus musculus [9]): 4%

COc1cc(N/N=C(C)/N=N/n2cnc3ccccc3c2=O)ccc1O
Activity [1]: 15%

Cc1cccc(-n2c(=O)c3ccccc3n3c(CCl)nnc23)c1
Activity (Mus musculus [9]): 4%

CN(Cc1cnc2nc(N)nc(N)c2n1)c1ccc(C(=O)N[C@@H](CCC(=O)O)C(=O)O)cc1 [METHOTREXATE]
IC50 (Homo sapiens [10]): 13.4 nM | IC50 (Homo sapiens [11]): 27.5 nM

Nc1ccc(-c2nc(S)c3cc4c(cc3n2)OCO4)cc1
ED50 (Mus musculus [14]): 36.6 µmol/kg | ED50 (Mus musculus [5]): 68.3 µmol/kg

NC1=Nc2ccccc2C2(CC2)N1
EC50 [6]: 100000 nM

CCCCS(=O)(=O)NC(CC#Cc1ccc2[nH]c(=O)n(CCC3CCNCC3)c(=O)c2c1)C(=O)O (centres undefined)
IC50 (Canis familiaris): 210 nM

COc1ccc(/C=C/c2nc3ccccc3c(=O)n2-c2cc(C(=O)O)ccc2Cl)cc1
inhibition in vivo at 200 mg/kg (Rattus norvegicus [7]): 62.2%

O=c1c2ccccc2nc(-c2ccccc2)n1-c1nc2ccccc2s1
Activity (Rattus norvegicus [19]): 30.3%

CC(/N=N/n1cnc2ccccc2c1=O)=N\Nc1ccc(O)cc1
Activity [1]: 15%
